pIC50: −log10 of the molar value. Where a name gives a salt, the structure may show the parent alone.
system: KRas G12D-mediated phosphorylation of ERK; assay: Inhibition of KRas G12D-mediated phosphorylation of ERK in AGS cells; assay type: cell-based; conditions: Homo sapiens; AGS cells expressing G12D, 3 hours, phospho-ERK normalized to GAPDH
Method: Cells were plated in tissue culture treated 96 well plates at a density of 40,000 cells/well and allowed to attach for 12-14 hours. Diluted compounds were then added in a final concentration of 0.5% DMSO. After 3 hours, the medium was removed, 150 μL of 4.0% formaldehyde was added and the plates incubated at room temperature for 20 minutes. The plates were washed with PBS, and permeabilized with 150 μL of ice cold 100% methanol for 10 minutes. Non-specific antibody binding to the plates was blocked using 100 μL Licor blocking buffer (Li-Cor Biotechnology, Lincoln Nebr.) for 1 hour at room temperature.
The amount of phospho-ERK was determined using an antibody specific for the phosphorylated form of ERK and compared to the amount of GAPDH. Primary antibodies used for the detection were added as follows: Phospho-ERK (Cell Signaling cs-9101) diluted 1:500 and GAPDH (Millipore MAB374) diluted 1:5000 in Licor block+0.05% Tween 20. The plates were incubated for 2 hours at room temperature. The plates were washed with PBS+0.05% Tween 20.
Secondary antibodies used to visualize primary antibodies were added as follows: Anti-rabbit-680 diluted 1:1000 and Anti-mouse-800 diluted 1:1000 both in Licor block+0.05% TweeN2O, and were incubated for 1 hour at room temperature. The plates were washed with PBS+0.05% Tween 20. A 100 μL aliquot of PBS was added to each well and the plates were read on a Li-Cor Odyssey CLX plate reader.
The phospho-ERK (Thr202/Tyr204 signal was normalized to the GAPDH signal for each well and percent of DMSO control values were calculated. IC50 values were generated using a 4-parameter fit of the dose response curve

SMILES | pIC50
Cc1c(Cl)cc2[nH]ncc2c1-c1ncc2c(N3CC4CCC(C3)N4)nc(OC[C@@]34CCCN3C[C@H](F)C4)nc2c1F (stereo in doubt) [Example 401, 4-((1R,5S)-3,8-diazabicyclo[3.2.1]octan-3-yl)-7-(6-chloro-5-methyl-1H-indazol-4-yl)-8-fluoro-2-((2-fluorotetrahydro-1H-pyrrolizin-7a(5H)-yl)methoxy)pyrido[4,3-d]pyrimidine] | 6.22
CO[C@H]1CN2CCC[C@]2(COc2nc(N3CC4CCC(C3)N4)c3cnc(-c4cc(O)cc5cccc(F)c45)c(F)c3n2)C1 (stereo in doubt) [Example 406, 4-(4-((1R,5S)-3,8-diazabicyclo[3.2.1]octan-3-yl)-8-fluoro-2-((2-methoxytetrahydro-1H-pyrrolizin-7a(5H)-yl)methoxy)pyrido[4,3-d]pyrimidin-7-yl)-5-fluoronaphthalen-2-ol] | 6.36
C#Cc1cccc2cc(O)cc(-c3ncc4c(N5CC6CCC(C5)N6)nc(OC[C@@]56CCCN5C[C@H](OC)C6)nc4c3F)c12 (stereo in doubt) [Example 410, 4-(4-((1R,5S)-3,8-diazabicyclo[3.2.1]octan-3-yl)-8-fluoro-2-((2-methoxytetrahydro-1H-pyrrolizin-7a(5H)-yl)methoxy)pyrido[4,3-d]pyrimidin-7-yl)-5-ethynylnaphthalen-2-ol] | 8.10
CN1CCC[C@H]1COc1nc(N2C[C@H]3CC[C@@H](C2)N3)c2cnc(-c3cc(O)cc4ccccc34)cc2n1 [Example 1, 4-(4-((1R,5S)-3,8-diazabicyclo[3.2.1]octan-3-yl)-2-(((S)-1-methylpyrrolidin-2-yl)methoxy)pyrido[4,3-d]pyrimidin-7-yl)naphthalen-2-ol tris-hydrochloride salt] | 5.50
Cn1ccnc1CCOc1nc(N2C[C@H]3CC[C@@H](C2)N3)c2cnc(-c3cc(O)cc4ccccc34)c(F)c2n1 [Example 3, 4-(4-((1R,5S)-3,8-diazabicyclo[3.2.1]octan-3-yl)-8-fluoro-2-(2-(1-methyl-1H-imidazol-2-yl)ethoxy)pyrido[4,3-d]pyrimidin-7-yl)naphthalen-2-ol] | 4.99
Oc1cc(-c2ncc3c(N4C[C@H]5CC[C@@H](C4)N5)nc(OCCc4ccccn4)nc3c2F)c2ccccc2c1 [Example 4, 4-(4-((1R,5S)-3,8-diazabicyclo[3.2.1]octan-3-yl)-8-fluoro-2-(2-(pyridin-2-yl)ethoxy)pyrido[4,3-d]pyrimidin-7-yl)naphthalen-2-ol] | 5.07
Cn1nccc1COc1nc(N2C[C@H]3CC[C@@H](C2)N3)c2cnc(-c3cc(O)cc4ccccc34)c(F)c2n1 [Example 5, 4-(4-((1R,5S)-3,8-diazabicyclo[3.2.1]octan-3-yl)-8-fluoro-2-((1-methyl-1H-pyrazol-5-yl)methoxy)pyrido[4,3-d]pyrimidin-7-yl)naphthalen-2-ol] | 5.09
Cc1cccnc1CCOc1nc(N2C[C@H]3CC[C@@H](C2)N3)c2cnc(-c3cc(O)cc4ccccc34)c(F)c2n1 [Example 6, 4-(4-((1R,5S)-3,8-diazabicyclo[3.2.1]octan-3-yl)-8-fluoro-2-(2-(3-methylpyridin-2-yl)ethoxy)pyrido[4,3-d]pyrimidin-7-yl)naphthalen-2-ol] | 4.94
CN1CCC[C@H]1CCOc1nc(N2C[C@H]3CC[C@@H](C2)N3)c2cnc(-c3cc(O)cc4ccccc34)c(F)c2n1 [Example 10, 4-(4-((1R,5S)-3,8-diazabicyclo[3.2.1]octan-3-yl)-8-fluoro-2-(2-((S)-1-methylpyrrolidin-2-yl)ethoxy)pyrido[4,3-d]pyrimidin-7-yl)naphthalen-2-ol] | 5.09
CCN1CCC[C@H]1COc1nc(N2C[C@H]3CC[C@@H](C2)N3)c2cnc(-c3cc(O)cc4ccccc34)c(F)c2n1 [Example 11, 4-(4-((1R,5S)-3,8-diazabicyclo[3.2.1]octan-3-yl)-2-(((S)-1-ethylpyrrolidin-2-yl)methoxy)-8-fluoropyrido[4,3-d]pyrimidin-7-yl)naphthalen-2-ol] | 5.97
Oc1cc(-c2ncc3c(N4C[C@H]5CC[C@@H](C4)N5)nc(OC[C@@H]4CCCN4Cc4ccccc4)nc3c2F)c2ccccc2c1 [Example 12, 4-(2-(((S)-1-benzylpyrrolidin-2-yl)methoxy)-4-((1R,5S)-3,8-diazabicyclo[3.2.1]octan-3-yl)-8-fluoropyrido[4,3-d]pyrimidin-7-yl)naphthalen-2-ol] | 5.31
CN1CCC[C@H]1COc1nc(N2C[C@H]3CC[C@@H](C2)N3)c2cnc(-c3cc(O)c(Br)c4ccccc34)c(F)c2n1 [Example 14, 4-(4-((1R,5S)-3,8-diazabicyclo[3.2.1]octan-3-yl)-8-fluoro-2-(((S)-1-methylpyrrolidin-2-yl)methoxy)pyrido[4,3-d]pyrimidin-7-yl)-1-bromonaphthalen-2-ol] | 5.31
Cc1cccc2cccc(-c3ncc4c(N5C[C@H]6CC[C@@H](C5)N6)nc(OC[C@@H]5CCCN5C)nc4c3F)c12 [Example 15, 4-((1R,5S)-3,8-diazabicyclo[3.2.1]octan-3-yl)-8-fluoro-7-(8-methylnaphthalen-1-yl)-2-(((S)-1-methylpyrrolidin-2-yl)methoxy)pyrido[4,3-d]pyrimidine] | < 4.78
CN1C[C@H](F)C[C@H]1COc1nc(N2C[C@H]3CC[C@@H](C2)N3)c2cnc(-c3cc(O)cc4ccccc34)c(F)c2n1 [Example 16, 4-(4-((1R,5S)-3,8-diazabicyclo[3.2.1]octan-3-yl)-8-fluoro-2-(((2S,4R)-4-fluoro-1-methylpyrrolidin-2-yl)methoxy)pyrido[4,3-d]pyrimidin-7-yl)naphthalen-2-ol] | 5.42
CN(C)CCOc1nc(N2C[C@H]3CC[C@@H](C2)N3)c2cnc(-c3cc(O)cc4ccccc34)c(F)c2n1 [Example 18, 4-(4-((1R,5S)-3,8-diazabicyclo[3.2.1]octan-3-yl)-2-(2-(dimethylamino)ethoxy)-8-fluoropyrido[4,3-d]pyrimidin-7-yl)naphthalen-2-ol] | 5.43
CN1CCC[C@H]1COc1nc(N2C[C@H]3CC[C@@H](C2)N3)c2cnc(-c3cccc4ccc(F)cc34)c(F)c2n1 [Example 19, 4-((1R,5S)-3,8-diazabicyclo[3.2.1]octan-3-yl)-8-fluoro-7-(7-fluoronaphthalen-1-yl)-2-(((S)-1-methylpyrrolidin-2-yl)methoxy)pyrido[4,3-d]pyrimidine] | < 4.78
Oc1cc(-c2ncc3c(N4C[C@H]5CC[C@@H](C4)N5)nc(OCCCN4CCOCC4)nc3c2F)c2ccccc2c1 [Example 22, 4-(4-((1R,5S)-3,8-diazabicyclo[3.2.1]octan-3-yl)-8-fluoro-2-(3-morpholinopropoxy)pyrido[4,3-d]pyrimidin-7-yl)naphthalen-2-ol] | 5.72
CC(Oc1nc(N2C[C@H]3CC[C@@H](C2)N3)c2cnc(-c3cc(O)cc4ccccc34)c(F)c2n1)C1CCCN1C (stereo partly drawn) [Example 27, 4-(4-((1R,5S)-3,8-diazabicyclo[3.2.1]octan-3-yl)-8-fluoro-2-(1-(1-methylpyrrolidin-2-yl)ethoxy)pyrido[4,3-d]pyrimidin-7-yl)naphthalen-2-ol] | 5.89
CN1C[C@H](C(F)(F)F)C[C@H]1COc1nc(N2C[C@H]3CC[C@@H](C2)N3)c2cnc(-c3cc(O)cc4ccccc34)c(F)c2n1 [Example 28, 4-(4-((1R,5S)-3,8-diazabicyclo[3.2.1]octan-3-yl)-8-fluoro-2-(((2S,4R)-1-methyl-4-(trifluoromethyl)pyrrolidin-2-yl)methoxy)pyrido[4,3-d]pyrimidin-7-yl)naphthalen-2-ol] | 4.93
CC(C)N1CCC[C@H]1COc1nc(N2C[C@H]3CC[C@@H](C2)N3)c2cnc(-c3cccc4cccc(Cl)c34)c(F)c2n1 [Example 29, 4-((R,5S)-3,8-diazabicyclo[3.2.1]octan-3-yl)-7-(8-chloronaphthalen-1-yl)-8-fluoro-2-(((S)-1-isopropylpyrrolidin-2-yl)methoxy)pyrido[4,3-d]pyrimidine] | 4.87
CN1CCC[C@H]1COc1nc(N2CC3C[C@@H](O)C(C2)N3)c2cnc(-c3cc(O)cc4ccccc34)c(F)c2n1 (stereo partly drawn) [Example 31, 3-(8-fluoro-7-(3-hydroxynaphthalen-1-yl)-2-(((S)-1-methylpyrrolidin-2-yl)methoxy)pyrido[4,3-d]pyrimidin-4-yl)-3,8-diazabicyclo[3.2.1]octan-6-ol] | 5.62
O[C@@H]1C[C@@H]2CN(c3nc(OCCc4ccc(F)cn4)nc4c(F)c(-c5cccc6cccc(Cl)c56)ncc34)C[C@H]1N2 [Example 32, (1R,5R,6R)-3-(7-(8-chloronaphthalen-1-yl)-8-fluoro-2-(2-(5-fluoropyridin-2-yl)ethoxy)pyrido[4,3-d]pyrimidin-4-yl)-3,8-diazabicyclo[3.2.1]octan-6-ol] | < 4.30
CO[C@@H]1C[C@@H](COc2nc(N3C[C@H]4CC[C@@H](C3)N4)c3cnc(-c4cccc5cccc(Cl)c45)c(F)c3n2)N(C)C1 [Example 34, 4-((1R,5S)-3,8-diazabicyclo[3.2.1]octan-3-yl)-7-(8-chloronaphthalen-1-yl)-8-fluoro-2-(((2S,4R)-4-methoxy-1-methylpyrrolidin-2-yl)methoxy)pyrido[4,3-d]pyrimidine] | 5.38

From patent publication US11453683B1, “KRas G12D inhibitors” (Mirati Therapeutics, Inc., priority 2019, dated 2022)
